Laboratory results published in ChEMBL document CHEMBL1201862, “PubChem BioAssay data set” (2004).
Calls of active or inactive are those of the source.

Legend:
[1] = HepG2 cell cytotoxicity, dose response, cytotoxicity control for non-replicating M. tuberculosis project (AID 489018); format: functional; details: Mycobacterium tuberculosis
[2] = THP-1 cell cytotoxicity, dose response, cytotoxicity control for non-replicating M. tuberculosis project (AID 489025); format: functional
[3] = cytotoxicity in HEK-293T cells, dose response, cytotoxicity control for BCR NF-kB inhibitor project, luminescence, B-cell screen hits (AID 489021); format: functional, cell-based;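 also: HEK-293T cells carrying an NF-kB luciferase reporter; cells exposed to compound for about 14 hours before viability readout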
[4] = molecular target: G2/mitotic-specific cyclin-B1 (Homo sapiens, UniProt P14635); assay: G2/M cell cycle arrest in HeLa, late-stage follow-up, mechanism study for Wee1 degradation inhibitor project, FACS, panel member Cyclin B Degradation (AID 2088)
[5] = molecular target: Wee1-like protein kinase (Homo sapiens, UniProt P30291); assay: G2/M cell cycle arrest in HeLa, late-stage follow-up, mechanism study for Wee1 degradation inhibitor project, FACS, panel member Wee1 Degradation (AID 2088)
[6] = molecular target: T1, Kappa-type opioid receptor (Homo sapiens, UniProt P41145); assay: SAR analysis of Antagonists of the Kappa Opioid Receptor (KOR) using an Image-Based Assay - Set 4. [Related pubchem assays (depositor defined):AID1777, AID1785]; format: functional
[7] = molecular target: Mu-type opioid receptor (Homo sapiens, UniProt P35372); assay: SAR Analysis of Antagonists of the MOR Receptor using an Image-Based Assay - Set 3. [Related pubchem assays (depositor defined):AID1777, AID1785, AID1786, AID1966, AID2133, AID2136, AID2284, AID2285, AID2420]; format: functional
[8] = molecular target: Delta-type opioid receptor (Homo sapiens, UniProt P41143); assay: SAR Analysis of Antagonists of the DOR Receptor using an Image-Based Assay - Set 3. [Related pubchem assays (depositor defined):AID1777, AID1785]; format: functional;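 also: U2OS cells expressing DOR1 and beta-arrestin GFP stimulated with 100 nM SNC80; imaging of GFP-tagged beta-arrestin moving into spots after receptor activation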
[9] = molecular target: T1, Kappa-type opioid receptor; assay: SAR analysis of small molecule antagonists of the kappa opioid receptor via a luminescent beta-arrestin assay - Set 4. [Related pubchem assays (depositor defined):AID1777, AID1778, AID1785, AID1786, AID1966, AID2133, AID2136, AID2285]; format: functional
[10] = Luminescence Cell Based Dose Confirmation HTS to Identify Activators of 5'UTR Stem-Loop Driven Alpha-Synuclein mRNA Translation in H4 Neuroglioblastoma Cells. [Related pubchem assays (depositor defined):AID1813, AID1829]; format: functional; details: Homo sapiens
[11] = molecular target: Melanin-concentrating hormone receptor 1 (Homo sapiens, UniProt Q99705); assay: Late-stage fluorescence-based counterscreen for antagonists of the G-protein coupled receptor 7 (GPR7): cell-based dose response assay to identify antagonists of the melanin-concentrating hormone receptor 1 (MCHR1). [Related pubchem assays (depositor defined):AID1861, AID1880, AID1952, AID2148, AID2251, AID2257, AID485339]; format: functional;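 also: stimulated with 30 nM MCH peptide agonist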
[12] = molecular target: T2, Neuropeptides B/W receptor type 1 (Homo sapiens, UniProt P48145); assay: GPR7 antagonist potency, late-stage follow-up, cell-based, fluorescence, dose response (AID 463251); format: functional
T2 sequence (P48145 whole entry): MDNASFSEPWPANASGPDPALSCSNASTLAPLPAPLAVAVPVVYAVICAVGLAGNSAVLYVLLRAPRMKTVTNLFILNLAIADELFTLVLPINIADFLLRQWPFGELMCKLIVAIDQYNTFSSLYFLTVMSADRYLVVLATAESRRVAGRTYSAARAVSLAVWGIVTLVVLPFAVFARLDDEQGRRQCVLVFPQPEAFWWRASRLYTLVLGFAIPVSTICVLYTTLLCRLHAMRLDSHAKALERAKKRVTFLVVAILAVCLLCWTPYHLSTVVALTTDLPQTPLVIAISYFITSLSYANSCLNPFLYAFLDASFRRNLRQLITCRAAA

[13] = molecular target: Eukaryotic translation initiation factor 4E (Mus musculus, UniProt P63073); assay: eIF4E–eIF4G protein interaction inhibitors, dose response, biochemical, TR-FRET (AID 855); format: functional;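 also: potency for disrupting eIF4E binding to eIF4GI seen as loss of FRET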
Chain of Eukaryotic translation initiation factor 4E (P63073 whole entry): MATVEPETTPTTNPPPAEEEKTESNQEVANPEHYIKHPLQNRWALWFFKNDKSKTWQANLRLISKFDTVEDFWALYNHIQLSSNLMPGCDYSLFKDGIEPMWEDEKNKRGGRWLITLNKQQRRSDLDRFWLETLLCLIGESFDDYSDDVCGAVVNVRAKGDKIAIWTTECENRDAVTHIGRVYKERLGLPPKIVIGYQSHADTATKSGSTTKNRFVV

T1 sequence (P41145 whole entry): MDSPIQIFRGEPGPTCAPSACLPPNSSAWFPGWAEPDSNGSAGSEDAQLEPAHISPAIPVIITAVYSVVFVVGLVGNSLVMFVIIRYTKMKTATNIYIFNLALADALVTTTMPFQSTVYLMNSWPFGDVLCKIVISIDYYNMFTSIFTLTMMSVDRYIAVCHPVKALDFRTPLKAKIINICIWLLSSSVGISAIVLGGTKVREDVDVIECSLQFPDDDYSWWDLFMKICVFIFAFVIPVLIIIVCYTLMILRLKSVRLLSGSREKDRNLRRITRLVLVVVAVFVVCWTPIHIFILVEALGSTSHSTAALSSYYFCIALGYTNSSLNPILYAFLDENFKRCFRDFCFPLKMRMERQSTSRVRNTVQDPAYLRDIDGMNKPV
Chain of Melanin-concentrating hormone receptor 1 (Q99705 whole entry): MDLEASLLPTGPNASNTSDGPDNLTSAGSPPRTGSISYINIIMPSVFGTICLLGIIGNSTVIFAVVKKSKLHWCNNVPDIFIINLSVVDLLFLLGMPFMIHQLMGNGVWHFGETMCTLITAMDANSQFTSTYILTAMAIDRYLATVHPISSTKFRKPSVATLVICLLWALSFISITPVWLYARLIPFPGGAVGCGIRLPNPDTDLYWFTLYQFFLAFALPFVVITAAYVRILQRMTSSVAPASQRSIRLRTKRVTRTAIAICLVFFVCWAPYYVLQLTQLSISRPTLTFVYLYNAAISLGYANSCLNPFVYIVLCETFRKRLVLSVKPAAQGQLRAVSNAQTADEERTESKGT
Chain of G2/mitotic-specific cyclin-B1 (P14635 whole entry): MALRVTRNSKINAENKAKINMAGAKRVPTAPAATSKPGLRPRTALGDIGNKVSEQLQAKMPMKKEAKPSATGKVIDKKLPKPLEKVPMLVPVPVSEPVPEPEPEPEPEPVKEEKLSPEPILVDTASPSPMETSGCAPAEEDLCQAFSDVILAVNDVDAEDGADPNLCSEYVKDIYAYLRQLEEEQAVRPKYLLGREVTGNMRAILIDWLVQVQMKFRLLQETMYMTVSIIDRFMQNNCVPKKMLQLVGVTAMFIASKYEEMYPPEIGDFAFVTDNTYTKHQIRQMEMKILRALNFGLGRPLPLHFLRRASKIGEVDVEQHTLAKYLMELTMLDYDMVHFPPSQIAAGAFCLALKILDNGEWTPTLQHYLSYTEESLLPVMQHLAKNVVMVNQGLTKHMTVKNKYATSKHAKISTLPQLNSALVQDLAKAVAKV
Chain of Delta-type opioid receptor (P41143 whole entry): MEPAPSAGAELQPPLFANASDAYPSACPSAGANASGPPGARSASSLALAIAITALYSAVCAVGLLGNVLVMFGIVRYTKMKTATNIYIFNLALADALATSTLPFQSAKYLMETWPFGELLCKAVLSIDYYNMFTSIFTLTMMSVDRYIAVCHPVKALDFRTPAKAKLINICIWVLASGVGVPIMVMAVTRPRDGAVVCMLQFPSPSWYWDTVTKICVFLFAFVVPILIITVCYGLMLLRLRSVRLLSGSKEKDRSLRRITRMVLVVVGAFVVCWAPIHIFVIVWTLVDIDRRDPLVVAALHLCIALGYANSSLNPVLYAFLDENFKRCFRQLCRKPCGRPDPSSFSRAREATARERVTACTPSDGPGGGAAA
Chain of Mu-type opioid receptor (P35372 whole entry): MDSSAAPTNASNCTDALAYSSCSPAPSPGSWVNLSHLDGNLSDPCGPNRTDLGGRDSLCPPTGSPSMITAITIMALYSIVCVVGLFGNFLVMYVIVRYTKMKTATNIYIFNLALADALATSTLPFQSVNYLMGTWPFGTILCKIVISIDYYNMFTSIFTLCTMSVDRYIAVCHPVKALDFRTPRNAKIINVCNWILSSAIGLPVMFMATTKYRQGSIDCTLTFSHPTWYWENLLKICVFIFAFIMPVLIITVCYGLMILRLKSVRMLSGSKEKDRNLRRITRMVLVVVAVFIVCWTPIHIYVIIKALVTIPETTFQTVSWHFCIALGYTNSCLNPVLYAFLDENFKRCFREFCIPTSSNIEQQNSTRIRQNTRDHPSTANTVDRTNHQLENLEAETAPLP
Chain of Wee1-like protein kinase (P30291 whole entry): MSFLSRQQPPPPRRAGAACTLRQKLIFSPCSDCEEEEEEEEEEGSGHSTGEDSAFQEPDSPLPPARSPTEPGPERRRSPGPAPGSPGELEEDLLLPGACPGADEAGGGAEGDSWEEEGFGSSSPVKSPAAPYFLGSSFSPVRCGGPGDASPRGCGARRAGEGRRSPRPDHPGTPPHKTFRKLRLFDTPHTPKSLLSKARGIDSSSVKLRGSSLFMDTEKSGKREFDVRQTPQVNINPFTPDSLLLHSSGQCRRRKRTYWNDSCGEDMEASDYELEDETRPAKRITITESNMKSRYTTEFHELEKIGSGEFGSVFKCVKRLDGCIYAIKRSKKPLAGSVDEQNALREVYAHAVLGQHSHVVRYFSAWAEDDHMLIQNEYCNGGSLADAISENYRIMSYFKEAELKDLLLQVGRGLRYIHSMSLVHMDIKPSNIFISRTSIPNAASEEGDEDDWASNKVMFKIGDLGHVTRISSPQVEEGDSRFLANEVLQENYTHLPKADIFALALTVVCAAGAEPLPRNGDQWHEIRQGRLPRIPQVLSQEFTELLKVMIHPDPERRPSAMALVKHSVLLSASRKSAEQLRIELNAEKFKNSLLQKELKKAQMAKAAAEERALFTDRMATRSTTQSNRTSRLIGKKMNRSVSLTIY

Question: For `Clc1ccc(SCCCCN2CCNCC2)cc1`, which CC50 [1] is on record?
Answer: Its CC50 is > 20 µM (active).

Question: What about the CC50 [2] of the same compound?
Answer: The CC50 was > 40 µM (active).

Question: With `O=C(CSCCO)Nc1ccc(C23C[C@H]4C[C@@H](C2)C[C@@H](C3)C4)cc1` as the compound, how does the IC50 [3] read?
Answer: Its IC50 is > 80 µM (inactive).

Question: Which EC50 [4] does the source give for `Cc1cc(Br)ccc1NC(=O)CCCOc1cc(=O)n(C)c2ccccc12` here?
Answer: Its EC50 is > 49.7 µM (inactive).

Question: What about the EC50 [5] of the same compound?
Answer: The EC50 was > 49.7 µM (inactive).

Question: Which IC50 [6] does the source give for `CC(C)Cc1ccc(S(=O)(=O)NCc2ccc(C(=O)NCCN(Cc3ccccc3)C(C)C)cc2)cc1` here?
Answer: Its IC50 is 0.595 µM (active).

Question: What about the IC50 [7] of the same compound?
Answer: The IC50 was > 32 µM (inactive).

Question: And the IC50 [8]?
Answer: Its IC50 is > 32 µM (inactive).

Question: What about the IC50 [9] of the same compound?
Answer: The IC50 was 4.02 µM (active).

Question: For `Cc1ccc(Nc2ccc(-c3ccncc3)s2)c(Br)c1`, which EC50 [10] is on record?
Answer: Its EC50 is 3.92 µM (active).

Question: What does the source list for `CCOc1ccc(CCOc2c(Cl)cnn(-c3ccc(C)cc3)c2=O)cc1OCC`?
Answer: IC50 [11]: 14.5 µM (inactive); IC50 [12]: 5.5 µM (active)

Question: Which IC50 [13] does the source give for `O=C(/C=N/O)Nc1ccc(F)cc1` here?
Answer: Its IC50 is > 64 µM (inactive).
